Assay results as given in the Kinase Knowledgebase extract (Sharma et al. 2016).

Key:
PIK3CA (human) [1] = target: PIK3CA (human) (UniProt P42336); experiment: Enzyme Assay
PIK3CD (Human) [2] = target: PIK3CD (Human) (UniProt O00329); experiment: Enzyme Assay
PIK3CG (human) = PIK3CG (human) (UniProt P48736); experiment: Enzyme Assay
PIK3CA (human) [3] = target: PIK3CA (human) (UniProt P42336); experiment: Cell-Based Assay; conditions: rat-1
PIK3CD (Human) [4] = target: PIK3CD (Human) (UniProt O00329); experiment: Cell-Based Assay; conditions: rat-1

PIK3CG (human), sequence (P48736 whole entry, looked up): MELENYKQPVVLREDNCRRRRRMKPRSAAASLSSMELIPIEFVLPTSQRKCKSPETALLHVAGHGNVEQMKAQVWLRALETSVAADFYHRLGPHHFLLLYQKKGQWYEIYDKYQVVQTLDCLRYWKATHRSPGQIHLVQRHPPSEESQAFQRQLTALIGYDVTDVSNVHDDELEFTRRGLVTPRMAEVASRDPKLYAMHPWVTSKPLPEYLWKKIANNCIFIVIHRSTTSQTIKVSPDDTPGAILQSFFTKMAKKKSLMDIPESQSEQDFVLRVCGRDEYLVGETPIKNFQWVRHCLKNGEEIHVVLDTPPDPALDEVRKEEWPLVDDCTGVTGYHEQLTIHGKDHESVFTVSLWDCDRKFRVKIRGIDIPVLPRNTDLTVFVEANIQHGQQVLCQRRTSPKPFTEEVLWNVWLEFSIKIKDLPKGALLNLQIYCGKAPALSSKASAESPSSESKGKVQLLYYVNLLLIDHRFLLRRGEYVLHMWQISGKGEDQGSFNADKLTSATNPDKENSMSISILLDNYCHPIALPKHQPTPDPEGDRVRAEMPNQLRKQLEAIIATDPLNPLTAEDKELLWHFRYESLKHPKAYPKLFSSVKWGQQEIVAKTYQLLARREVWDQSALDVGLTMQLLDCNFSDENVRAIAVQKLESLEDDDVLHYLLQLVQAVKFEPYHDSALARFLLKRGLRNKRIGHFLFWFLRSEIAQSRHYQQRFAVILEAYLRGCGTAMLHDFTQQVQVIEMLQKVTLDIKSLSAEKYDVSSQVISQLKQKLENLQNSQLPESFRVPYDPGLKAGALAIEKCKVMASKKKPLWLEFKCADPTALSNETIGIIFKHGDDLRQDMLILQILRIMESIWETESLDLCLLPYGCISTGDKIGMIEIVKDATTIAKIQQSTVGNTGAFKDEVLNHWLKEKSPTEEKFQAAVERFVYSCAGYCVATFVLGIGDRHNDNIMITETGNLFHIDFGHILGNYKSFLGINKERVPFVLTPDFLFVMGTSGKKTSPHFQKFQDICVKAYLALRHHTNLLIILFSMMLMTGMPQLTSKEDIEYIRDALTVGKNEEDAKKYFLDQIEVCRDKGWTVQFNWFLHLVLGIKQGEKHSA
PIK3CA (human), sequence (P42336 whole entry, looked up): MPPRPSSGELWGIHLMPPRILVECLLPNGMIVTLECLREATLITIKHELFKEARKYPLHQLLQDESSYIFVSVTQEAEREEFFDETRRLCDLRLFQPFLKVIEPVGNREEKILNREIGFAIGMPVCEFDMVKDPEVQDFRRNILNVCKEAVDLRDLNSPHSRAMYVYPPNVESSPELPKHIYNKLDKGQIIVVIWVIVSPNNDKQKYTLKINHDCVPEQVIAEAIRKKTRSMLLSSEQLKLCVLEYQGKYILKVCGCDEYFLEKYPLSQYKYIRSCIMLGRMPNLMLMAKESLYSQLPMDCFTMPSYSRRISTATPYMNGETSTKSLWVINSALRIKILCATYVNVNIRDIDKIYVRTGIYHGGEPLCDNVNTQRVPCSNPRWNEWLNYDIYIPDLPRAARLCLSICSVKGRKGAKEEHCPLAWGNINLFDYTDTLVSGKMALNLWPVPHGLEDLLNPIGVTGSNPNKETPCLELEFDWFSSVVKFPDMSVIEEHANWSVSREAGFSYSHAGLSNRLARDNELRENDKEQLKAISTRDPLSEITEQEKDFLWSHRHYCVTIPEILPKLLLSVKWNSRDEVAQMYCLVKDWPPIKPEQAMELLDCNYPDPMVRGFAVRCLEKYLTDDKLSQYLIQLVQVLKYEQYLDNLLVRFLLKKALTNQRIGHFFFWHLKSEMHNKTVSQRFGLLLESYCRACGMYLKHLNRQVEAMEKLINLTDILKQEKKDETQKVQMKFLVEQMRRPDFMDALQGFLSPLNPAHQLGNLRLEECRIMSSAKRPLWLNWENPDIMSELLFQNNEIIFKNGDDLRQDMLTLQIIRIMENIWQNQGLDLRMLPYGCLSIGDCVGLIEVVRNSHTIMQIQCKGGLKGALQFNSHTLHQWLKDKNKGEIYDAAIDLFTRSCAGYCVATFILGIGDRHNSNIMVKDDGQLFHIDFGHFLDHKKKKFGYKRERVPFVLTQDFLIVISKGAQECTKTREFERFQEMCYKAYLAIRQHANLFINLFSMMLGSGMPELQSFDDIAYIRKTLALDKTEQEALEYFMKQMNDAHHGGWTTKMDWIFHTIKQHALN
PIK3CD (Human), sequence (O00329 whole entry, looked up): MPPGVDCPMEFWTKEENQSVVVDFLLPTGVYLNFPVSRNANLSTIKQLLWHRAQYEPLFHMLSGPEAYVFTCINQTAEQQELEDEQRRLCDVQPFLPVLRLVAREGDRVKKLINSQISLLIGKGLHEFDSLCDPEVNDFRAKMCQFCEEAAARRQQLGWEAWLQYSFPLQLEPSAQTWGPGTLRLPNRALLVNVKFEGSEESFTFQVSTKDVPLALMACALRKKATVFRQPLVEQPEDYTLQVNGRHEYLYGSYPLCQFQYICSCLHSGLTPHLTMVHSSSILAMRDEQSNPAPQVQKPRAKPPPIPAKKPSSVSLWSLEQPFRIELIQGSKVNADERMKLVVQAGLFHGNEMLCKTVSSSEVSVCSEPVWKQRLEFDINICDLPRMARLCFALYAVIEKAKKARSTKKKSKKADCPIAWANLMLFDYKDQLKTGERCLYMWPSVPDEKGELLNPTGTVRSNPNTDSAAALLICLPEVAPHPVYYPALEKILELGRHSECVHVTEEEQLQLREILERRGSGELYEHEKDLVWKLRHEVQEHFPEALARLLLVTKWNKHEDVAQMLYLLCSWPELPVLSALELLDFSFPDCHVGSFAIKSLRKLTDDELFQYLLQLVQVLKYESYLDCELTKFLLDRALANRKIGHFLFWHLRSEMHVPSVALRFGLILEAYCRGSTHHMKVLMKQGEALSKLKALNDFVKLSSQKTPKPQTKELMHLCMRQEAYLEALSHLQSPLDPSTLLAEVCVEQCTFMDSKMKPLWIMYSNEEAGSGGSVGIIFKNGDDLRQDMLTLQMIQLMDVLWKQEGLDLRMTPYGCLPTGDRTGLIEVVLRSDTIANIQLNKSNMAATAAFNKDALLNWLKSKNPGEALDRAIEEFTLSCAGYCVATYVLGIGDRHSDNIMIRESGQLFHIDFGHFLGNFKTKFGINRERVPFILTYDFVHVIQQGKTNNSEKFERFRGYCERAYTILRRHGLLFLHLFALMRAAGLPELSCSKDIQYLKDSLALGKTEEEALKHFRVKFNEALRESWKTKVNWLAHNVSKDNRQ

| IC50 (PIK3CA (human) [1]) | IC50 (PIK3CD (Human) [2]) | IC50 (PIK3CG (human)) | IC50 (PIK3CA (human) [3]) | IC50 (PIK3CD (Human) [4]) | Structure (SMILES) |
| --- | --- | --- | --- | --- | --- |
| > 10000 nM | 43 nM | > 10000 nM | > 10000 nM | 292 nM | N#Cc1c(N)ncnc1N1CCC[C@H]1c1nc2cc(F)cc(F)c2c(=O)n1-c1ccccc1 |
| > 10000 nM | 120 nM | > 10000 nM | > 10000 nM | 733 nM | O=c1c2c(F)cc(F)cc2nc([C@@H]2CCCN2c2ncnc3[nH]cnc23)n1-c1ccccc1 |
| 4700 nM | 8 nM | 280 nM | > 10000 nM | 36 nM | N#Cc1c(N)ncnc1N1CCC[C@H]1c1nc2cccc(Cl)c2c(=O)n1C1CCOCC1 |
| 5550 nM | 90 nM | 2300 nM | > 10000 nM | < 3 nM | N#Cc1c(N)ncnc1N1CCC[C@H]1c1nc2ccc(F)c(F)c2c(=O)n1-c1ccccc1 |
| 2300 nM | 12 nM | 130 nM | 8580 nM | 291 nM | Nc1nc(N2CCC[C@H]2c2nc3cccc(Cl)c3c(=O)n2N2CCCCC2)c2nc[nH]c2n1 |
| 4000 nM | 66 nM | 380 nM | > 10000 nM | 32 nM | CO[C@H]1C[C@@H](c2nc3cccc(Cl)c3c(=O)n2N2CCOCC2)N(c2ncnc(N)c2C#N)C1 |
| 2800 nM | 35 nM | 140 nM | > 10000 nM | 80 nM | O=c1c2c(Cl)cccc2nc([C@@H]2CCCN2c2ncnc3[nH]cnc23)n1N1CCOCC1 |
| 1230 nM | 23 nM | 53 nM | > 10000 nM | 29 nM | CO[C@H]1C[C@@H](c2nc3cccc(Cl)c3c(=O)n2N2CCOCC2)N(c2nc(N)nc(C)c2C#N)C1 |
| 1200 nM | 110 nM | 780 nM | 2860 nM | 128 nM | CN(C)n1c([C@@H]2CCCN2c2nc(N)nc3[nH]cnc23)nc2cccc(Cl)c2c1=O |
| 700 nM | 11 nM | 120 nM | 7160 nM | 25 nM | Cc1c(F)ccc2nc([C@@H]3CCCN3c3ncnc(N)c3C#N)n(-c3ccccc3)c(=O)c12 |
| 3300 nM | 20 nM | 170 nM | > 10000 nM | 84 nM | O=c1c2c(Cl)cccc2nc([C@@H]2CCCN2c2ncnc3[nH]cnc23)n1-c1cccnc1 |
| 6820 nM | 11 nM | 148 nM | 4470 nM | 38 nM | Cc1ccccc1-n1c([C@@H]2CSCN2c2ncnc(N)c2C#N)nc2cccc(Cl)c2c1=O |
| 72 nM | 7 nM | 22 nM | 1110 nM | 5 nM | Cc1nc(N)nc(N2CCC[C@H]2c2nc3cccc(Cl)c3c(=O)n2-c2ccccc2)c1C#N |
|  | 150 nM | 980 nM | > 10000 nM | 1810 nM | O=c1c2c(Cl)cccc2nc([C@@H]2CCON2c2ncnc3[nH]cnc23)n1-c1ccccc1 |
| 1780 nM | 24 nM | 96 nM | > 10000 nM | 149 nM | Nc1nc(N2CCC[C@H]2c2nc3cccc(Cl)c3c(=O)n2C2CCCCC2)c2nc[nH]c2n1 |
| 1500 nM | 7 nM | 81 nM | 5990 nM | 57 nM | O=c1c2c(Cl)cccc2nc([C@@H]2CCON2c2ncnc3scnc23)n1-c1ccccc1 |
| 8400 nM | 270 nM | 220 nM | > 10000 nM | 651 nM | COc1ccc(-n2c([C@@H]3CCCN3c3nc(N)nc4[nH]cnc34)nc3cccc(Cl)c3c2=O)cn1 |
| 340 nM | 9 nM | 70 nM | > 10000 nM | 77 nM | Cc1nc(N)nc(N2CCC[C@H]2c2nc3cccc(OC(F)F)c3c(=O)n2-c2ccccc2)c1C#N |
| > 10000 nM | 660 nM | 1900 nM | > 10000 nM | 1400 nM | COc1ccc(-n2c([C@@H]3CCCN3c3ncnc4[nH]cnc34)nc3cccc(Cl)c3c2=O)cn1 |
| 3100 nM | 23 nM | 230 nM | > 10000 nM | < 3 nM | N#Cc1cnc(N)nc1N1CCC[C@H]1c1nc2cccc(C(F)(F)F)c2c(=O)n1-c1ccccc1 |
|  | 56 nM | 420 nM | > 10000 nM | 222 nM | Cn1nccc1-n1c([C@@H]2CSCN2c2ncnc3[nH]cnc23)nc2cccc(Cl)c2c1=O |
| 7700 nM | 14 nM | 150 nM | 4590 nM | 12 nM | N#Cc1c(N)ncnc1N1CCC[C@H]1c1nc2cccc(Cl)c2c(=O)n1-c1cccnc1 |
| 4550 nM | 59 nM | 295 nM | > 10000 nM | 179 nM | O=c1c2c(Cl)cccc2nc([C@@H]2CCCN2c2ncnc3[nH]cnc23)n1C1CCOCC1 |
| 1800 nM | 10 nM | 200 nM | > 10000 nM | 198 nM | O=c1c2c(Cl)cccc2nc([C@@H]2CCCN2c2ncnc3[nH]cnc23)n1N1CCCCC1 |

| IC50 (PIK3CA (human) [1]) | IC50 (PIK3CD (Human) [2]) | IC50 (PIK3CG (human)) | IC50 (PIK3CA (human) [3]) | IC50 (PIK3CD (Human) [4]) | Structure (SMILES) |
| --- | --- | --- | --- | --- | --- |
| 1100 nM | 21 nM | 190 nM | 3530 nM | 26 nM | CN(C)n1c([C@@H]2CCCN2c2ncnc(N)c2C#N)nc2cccc(Cl)c2c1=O |
| > 10000 nM | 510 nM | 5600 nM | > 10000 nM |  | O=c1c2c(Cl)cccc2nc([C@@H]2CCCN2c2ncnc3[nH]cnc23)n1[C@@H]1CCN(S(=O)(=O)C2CC2)C1 |
| 1800 nM | 8 nM | 66 nM | > 10000 nM | 3 nM | N#Cc1c(N)ncnc1N1C[C@@H](O)C[C@H]1c1nc2cccc(C(F)(F)F)c2c(=O)n1-c1ccccc1 |
| > 10000 nM | 16 nM | 1100 nM | > 10000 nM | 13 nM | N#Cc1c(N)ncnc1N1CCC[C@H]1c1nc2cccc(Cl)c2c(=O)n1C1CCCCC1 |
| > 10000 nM | 100 nM | 1200 nM | > 10000 nM | 2480 nM | Cc1ccccc1-n1c([C@@H]2CCON2c2ncnc3[nH]cnc23)nc2cccc(Cl)c2c1=O |
| > 10000 nM | 12 nM | 170 nM | > 10000 nM | 121 nM | O=c1c2c(Cl)cccc2nc([C@@H]2CCCN2c2ncnc3[nH]cnc23)n1C1CCCCC1 |
| > 10000 nM | 120 nM | 3200 nM | > 10000 nM | 278 nM | N#Cc1c(N)ncnc1N1CCC[C@H]1c1nc2cccc(Cl)c2c(=O)n1N1CCCCC1 |
| 600 nM | 14 nM | 41 nM | > 10000 nM | < 3 nM | Cc1nc(N)nc(N2CCC[C@H]2c2nc3ccc(F)c(F)c3c(=O)n2-c2ccccc2)c1C#N |
| > 10000 nM | 43 nM | > 10000 nM | > 10000 nM | > 10000 nM | Cc1nc(N)c(C#N)c(N2CCC[C@H]2c2nc3cccc(C(F)(F)F)c3c(=O)n2-c2ccccc2)n1 |
| 5950 nM | 1430 nM | 445 nM | 5460 nM | 894 nM | Cn1cnc2c(N3CCC[C@H]3c3nc4cccc(Cl)c4c(=O)n3C3CC3)nc(N)nc21 |
| 460 nM | 5 nM | 46 nM | 210 nM | 37 nM | Cc1nc(N)nc(N2CCC[C@H]2c2nc3cccc(C(F)(F)F)c3c(=O)n2-c2ccccc2)c1C#N |
| 7900 nM | 21 nM | 340 nM | 7140 nM | 142 nM | O=c1c2c(Cl)cccc2nc([C@@H]2CSCN2c2ncnc3[nH]cnc23)n1-c1ccccc1C1CC1 |
| 1030 nM | 26 nM | 58 nM | 3300 nM | 32 nM | CC1(n2c([C@@H]3CCCN3c3nc(N)nc4[nH]cnc34)nc3cccc(Cl)c3c2=O)CC1 |
| > 10000 nM | 82 nM | 1100 nM | > 10000 nM | 262 nM | Cc1ccc(-n2c([C@@H]3CSCN3c3ncnc(N)c3C#N)nc3cccc(Cl)c3c2=O)s1 |
| 2940 nM | 18 nM | 202 nM | > 10000 nM | 57 nM | O=c1c2c(Cl)cccc2nc([C@@H]2CSCN2c2ncnc3[nH]cnc23)n1-c1ccccc1 |
| 370 nM | 17 nM | 49 nM | 2090 nM | 42 nM | Cc1nc(N)nc(N2CCC[C@H]2c2nc3ccc(F)c(C)c3c(=O)n2-c2ccccc2)c1C#N |
| 2000 nM | 89 nM | 320 nM | 7680 nM | 109 nM | CN(C)n1c([C@@H]2CCCN2c2ncnc3[nH]cnc23)nc2cccc(Cl)c2c1=O |
| 580 nM | 7 nM | 490 nM | 2150 nM | 7 nM | CC1(n2c([C@@H]3CCCN3c3ncnc4[nH]cnc34)nc3cccc(Cl)c3c2=O)CC1 |
| > 10000 nM | 140 nM | 820 nM | > 10000 nM | 509 nM | Cc1ccc(-n2c([C@@H]3CSCN3c3ncnc4[nH]cnc34)nc3cccc(Cl)c3c2=O)s1 |
| 9300 nM | 440 nM | > 10000 nM | > 10000 nM | 1150 nM | COC(=O)N1CC[C@H](n2c([C@@H]3CCCN3c3ncnc4[nH]cnc34)nc3cccc(Cl)c3c2=O)C1 |
| 1000 nM | 15 nM | 31 nM |  |  | Nc1nc(N2C[C@@H](O)C[C@H]2c2nc3cccc(Cl)c3c(=O)n2-c2ccccc2)c2nccn2n1 |
| 4670 nM | 34 nM | 103 nM | 5150 nM | 56 nM | O=c1c2c(Cl)cccc2nc([C@@H]2CCCN2c2ncnn3ccnc23)n1-c1ccccc1 |
| > 10000 nM | 210 nM | 3700 nM | > 10000 nM |  | CS(=O)(=O)N1CC[C@@H](n2c([C@@H]3CCCN3c3ncnc4[nH]cnc34)nc3cccc(Cl)c3c2=O)C1 |
